Measured values reported in patent publication US12134788B2, “Engineered prephenate dehydrogenases and arogenate dehydrogenases and methods of using the same” (Wisconsin Alumni Research Foundation, priority 2017, dated 2024).

Tests used:
[1] = target: T1, GmncADH (Gm14g05990), soybean (Glycine max) noncanonical arogenate dehydrogenase, wild type (Glycine max, UniProt I1M7P5); assay: ADH and PDH assay: steady-state kinetics and Tyr inhibition, GmncADH wild type; format: biochemical
T1 construct: wild type
T1 sequence (I1M7P5 1-266): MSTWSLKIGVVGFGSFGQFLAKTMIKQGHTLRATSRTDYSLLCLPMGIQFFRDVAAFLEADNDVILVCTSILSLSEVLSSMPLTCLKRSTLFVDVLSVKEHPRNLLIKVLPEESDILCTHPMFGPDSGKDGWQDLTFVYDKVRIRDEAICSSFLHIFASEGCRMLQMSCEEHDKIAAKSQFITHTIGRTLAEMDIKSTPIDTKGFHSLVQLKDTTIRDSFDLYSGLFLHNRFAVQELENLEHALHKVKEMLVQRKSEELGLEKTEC
Protocol: (§1) Kinetic parameters of purified recombinant proteins were determined from assays conducted at varying arogenate (19.5 μM-5 mM) and prephenate concentration (23.4 μM-6 mM). Standard assay conditions were 25 mM HEPES pH 7.6, 50 mM KCl and 10% (v/v) ethylene glycol, and 0.5 mM NADP^+ with varied substrate, concentrations. Reactions were initiated by addition of enzyme and incubated at 37° C. monitored every 10-15 seconds at […] using a microplate reader (Tecan Genios). Kinetic parameters were determined by fitting initial velocity data to the Michaelis-Menten equation using the Origin software (OriginLab).
(§2) Arogenate was prepared by enzymatic conversion of prephenate (Sigma-Aldrich) as previously reported^56. For Tyr inhibition assays, Tyr was dissolved in a slightly basic solution (0.025 N NaOH) due to solubility issues, thus the concentration of lysis buffer was increased to 500 mM HEPES final concentration to buffer against the changes by addition of Tyr in the reaction. Reactions containing varying amounts of Tyr (10 μM-8 mM) with 0.5 mM NADP^+ and either 1 mM arogenate or 0.8 mM prephenate were monitored as above.

[2] = target: T2, Glycine max GmncADH variant D218N (Glycine max, UniProt I1M7P5, D218N); assay: ADH and PDH assay: steady-state kinetics and Tyr inhibition, GmncADH D218N; format: biochemical, Glycine max (soybean); details: versus wild-type; ADH activity, 0-8 mM Tyr
T2 construct: D218N by site-directed mutagenesis
T2 sequence (I1M7P5 1-266 D218N): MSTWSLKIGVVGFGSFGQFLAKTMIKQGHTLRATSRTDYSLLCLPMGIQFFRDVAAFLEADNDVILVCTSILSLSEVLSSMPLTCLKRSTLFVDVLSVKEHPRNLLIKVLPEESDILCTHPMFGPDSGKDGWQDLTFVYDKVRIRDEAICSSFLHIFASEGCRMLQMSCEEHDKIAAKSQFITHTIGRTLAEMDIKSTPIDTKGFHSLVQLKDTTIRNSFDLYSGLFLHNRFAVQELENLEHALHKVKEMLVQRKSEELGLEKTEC
Protocol: as §1, §2

[3] = test system: SynADH, Synechocystis sp. PCC 6803 arogenate dehydrogenase; details: cited from earlier work
[4] = target: T3, MtPDH (MtPDH1; Mt3g071980), Medicago truncatula prephenate dehydrogenase, wild type (Medicago truncatula, UniProt A0A0A0R205); assay: ADH and PDH assay: steady-state kinetics and Tyr inhibition, MtPDH wild type; format: biochemical
T3 sequence (A0A0A0R205 1-268): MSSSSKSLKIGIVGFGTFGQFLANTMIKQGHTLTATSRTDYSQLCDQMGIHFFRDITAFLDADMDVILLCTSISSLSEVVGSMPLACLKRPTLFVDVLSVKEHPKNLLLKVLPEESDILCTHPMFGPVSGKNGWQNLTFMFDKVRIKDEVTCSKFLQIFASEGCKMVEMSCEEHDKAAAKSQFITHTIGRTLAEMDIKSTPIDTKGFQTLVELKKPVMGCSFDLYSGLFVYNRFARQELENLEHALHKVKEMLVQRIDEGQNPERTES
Protocol: as §1
as §2, with “Reactions containing varying amounts of Tyr (10 μM-8 mM) with 0.5 mM NADP^+ and either 1 mM arogenate or 0.8 mM prephenate were monitored as above.” left out

[5] = target: T4, GmPDH1 (Gm18g02650), soybean (Glycine max) prephenate dehydrogenase, wild type (Glycine max, UniProt I1MYY4); assay: ADH and PDH assay: steady-state kinetics and Tyr inhibition, GmPDH1 wild type; format: biochemical
T4 construct: homodimer
T4 sequence (I1MYY4 1-271): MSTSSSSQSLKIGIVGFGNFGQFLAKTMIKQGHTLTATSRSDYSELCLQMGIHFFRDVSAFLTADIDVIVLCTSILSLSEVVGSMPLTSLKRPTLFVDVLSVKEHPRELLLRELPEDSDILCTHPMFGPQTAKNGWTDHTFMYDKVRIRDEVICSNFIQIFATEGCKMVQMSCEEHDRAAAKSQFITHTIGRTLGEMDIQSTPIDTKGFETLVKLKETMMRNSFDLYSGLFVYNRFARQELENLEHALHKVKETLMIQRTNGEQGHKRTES
Protocol: as §1
as §2, with “Reactions containing varying amounts of Tyr (10 μM-8 mM) with 0.5 mM NADP^+ and either 1 mM arogenate or 0.8 mM prephenate were monitored as above.” left out

[6] = target: AtADH2 (At1g15710), Arabidopsis thaliana canonical arogenate dehydrogenase, wild type (Arabidopsis thaliana, UniProt Q9LMR3); assay: Tyr inhibition of AtADH2 wild type; format: biochemical; details: ADH activity, 0-8 mM L-Tyr
AtADH2 (At1g15710), Arabidopsis thaliana canonical arogenate dehydrogenase, wild type, sequence (Q9LMR3 37-358): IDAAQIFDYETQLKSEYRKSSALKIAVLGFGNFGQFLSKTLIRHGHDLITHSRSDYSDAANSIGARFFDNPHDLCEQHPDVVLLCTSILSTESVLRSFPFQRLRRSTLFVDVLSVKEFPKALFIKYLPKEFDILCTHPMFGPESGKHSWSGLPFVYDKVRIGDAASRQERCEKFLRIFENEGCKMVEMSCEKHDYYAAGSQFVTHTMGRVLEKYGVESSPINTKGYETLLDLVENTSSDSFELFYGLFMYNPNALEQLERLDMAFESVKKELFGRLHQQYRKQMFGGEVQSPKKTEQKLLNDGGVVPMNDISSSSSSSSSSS
Protocol: as §1, §2

With `N[C@@H](Cc1ccc(O)cc1)C(=O)O` [Tyr, L-Tyrosine] the IC50 [1] was 15.5 ± 0.8 mM, the “IC50 (Tyr), in words” value ([1]; sensitivity to Tyr) was “in the mM range” and the “sensitivity to Tyr inhibition” value [2] was “significantly less sensitive to Tyr inhibition”. For the same molecule, the Tyr sensitivity [3] was “Tyr insensitive”, the IC50 [4] was 32.1 ± 10 mM and the “feedback inhibition by Tyr” value ([4]; up to 8 mM Tyr in assays) was “insensitive to feedback inhibition by Tyr”. The IC50 [5] was 31.3 ± 9.3 mM, the “feedback inhibition by Tyr” value ([5]; up to 8 mM Tyr in assays) was “insensitive to feedback inhibition by Tyr” and the IC50 [6] was 0.038 mM.
